Assay [1] addresses T1, Amyloid-beta precursor protein (Homo sapiens, UniProt P05067). Briefly: In vitro effective concentration against beta amyloid protein 42 in ELISA; increase in presence of weak inhibitor. On the technique in general: An ELISA detects its analyte on a solid surface through an enzyme-linked reagent.
Target sequence in this assay (P05067 whole entry): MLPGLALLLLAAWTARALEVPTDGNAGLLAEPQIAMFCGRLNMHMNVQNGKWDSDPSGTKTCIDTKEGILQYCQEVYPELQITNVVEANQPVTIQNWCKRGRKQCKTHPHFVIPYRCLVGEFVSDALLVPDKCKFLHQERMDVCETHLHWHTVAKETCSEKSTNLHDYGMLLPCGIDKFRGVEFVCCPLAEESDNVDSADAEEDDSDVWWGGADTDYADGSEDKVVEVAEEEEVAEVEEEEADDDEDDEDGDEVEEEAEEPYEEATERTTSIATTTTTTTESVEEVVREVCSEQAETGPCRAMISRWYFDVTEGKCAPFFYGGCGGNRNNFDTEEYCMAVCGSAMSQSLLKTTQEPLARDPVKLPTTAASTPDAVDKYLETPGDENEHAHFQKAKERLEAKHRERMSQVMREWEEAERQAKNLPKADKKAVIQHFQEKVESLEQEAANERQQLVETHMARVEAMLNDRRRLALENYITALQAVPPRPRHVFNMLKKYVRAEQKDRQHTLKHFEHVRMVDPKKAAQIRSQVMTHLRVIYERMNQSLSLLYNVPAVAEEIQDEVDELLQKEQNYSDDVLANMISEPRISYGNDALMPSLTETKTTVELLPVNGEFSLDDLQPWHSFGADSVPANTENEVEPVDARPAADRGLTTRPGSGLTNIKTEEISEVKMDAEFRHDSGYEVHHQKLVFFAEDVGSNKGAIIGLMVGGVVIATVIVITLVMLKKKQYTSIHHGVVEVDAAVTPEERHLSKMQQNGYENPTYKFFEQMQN
Assay [2] has as its target T1, Amyloid-beta precursor protein. Briefly: Percent inhibition of beta amyloid protein 40 activity in ELISA at 100 uM.
Target sequence in this assay (P05067 whole entry): as above
Assay [3] shares this target. Briefly: In vitro elevation of beta C-terminal fragment (Ct-99) in CHO cells expressing mutant Swedish NL human APP. Format: functional, cell-based.
Target sequence in this assay (P05067 18-770 limits assumed): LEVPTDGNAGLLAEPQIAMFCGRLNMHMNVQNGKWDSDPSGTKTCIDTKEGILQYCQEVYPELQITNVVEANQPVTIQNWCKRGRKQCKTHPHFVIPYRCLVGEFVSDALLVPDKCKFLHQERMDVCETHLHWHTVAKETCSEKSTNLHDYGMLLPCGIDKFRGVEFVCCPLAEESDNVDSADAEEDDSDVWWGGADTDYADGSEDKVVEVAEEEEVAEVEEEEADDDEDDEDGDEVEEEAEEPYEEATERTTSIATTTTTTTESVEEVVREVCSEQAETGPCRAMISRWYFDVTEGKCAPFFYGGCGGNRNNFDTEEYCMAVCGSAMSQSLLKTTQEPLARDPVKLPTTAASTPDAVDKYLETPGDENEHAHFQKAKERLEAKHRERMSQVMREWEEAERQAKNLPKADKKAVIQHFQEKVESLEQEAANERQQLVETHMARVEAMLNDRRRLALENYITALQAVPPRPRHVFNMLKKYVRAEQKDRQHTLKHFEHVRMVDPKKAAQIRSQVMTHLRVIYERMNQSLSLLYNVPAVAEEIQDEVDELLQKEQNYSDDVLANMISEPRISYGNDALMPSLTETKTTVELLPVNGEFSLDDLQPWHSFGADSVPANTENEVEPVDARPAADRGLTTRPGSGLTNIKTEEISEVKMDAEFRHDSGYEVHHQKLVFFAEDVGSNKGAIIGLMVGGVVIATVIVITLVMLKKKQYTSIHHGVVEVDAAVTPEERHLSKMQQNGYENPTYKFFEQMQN
Assay [4] shares this target. Kind of assay: In vitro reduction of Swedish NL mutant amyloid precursor protein activity expressed in CHO cells. Format: functional, cell-based.
Target sequence in this assay (P05067 18-770 limits assumed): as above

SMILES strings stand for the structures.

Take `CCOC(=O)N1CCC(c2ccccc2OC)(S(=O)(=O)c2ccccc2)CC1`: the EC50 (as a rule, the concentration at which the effect is half-maximal) in assay [1] is recorded as “Increase”. The same measure, in the same setting: then `CCOC(=O)N1CCC(c2ccccc2C)(S(=O)(=O)c2ccccc2)CC1`, with “Increase”; and `CCOC(=O)N1CCC(c2ccccc2C)(S(=O)(=O)c2ccc(OC)cc2)CC1`, with “Increase”. For the compound `CCOC(=O)N1CCC(c2ccccc2)(S(=O)(=O)c2ccccc2)CC1`, in assay [2], the inhibition (in general, the share of the control response that was lost under treatment) turned out to be 84%. For the same compound, the EC50 result in assay [1] was “Increase”. Turning to `CCOC(=O)N1CCC(c2ccccc2)(S(=O)(=O)c2ccc(OC)cc2)CC1`, the EC50 result in assay [1] is “Increase”.

Take `CCOC(=O)N1CCC(c2ccccc2OC)(S(=O)(=O)c2ccc(OC)cc2)CC1`: the concentration giving a half-maximal response (EC50) entry in assay [1] was “Increase”. With `CCOC(=O)N1CCC(c2ccccc2OC)(S(=O)(=O)c2ccc(Cl)cc2)CC1`, the values for the 50% effective concentration (EC50) in assay [3] and in assay [4] were 640 nM and 530 nM, respectively.

The record behind these values is ChEMBL document CHEMBL1143507, “Molecular-modeling based design, synthesis, and activity of substituted piperidines as gamma-secretase inhibitors” (Bioorg Med Chem Lett, 2005).
